“Also recorded” adds a separate entry of the source. Like-named read-outs stand apart in the source and are kept apart here.
What was measured:
GLUT-4 expression = assay: Larval diabetic zebrafish assay, Western blot of GLUT-4; format: in vivo; conditions: duplicate Western blot (FIG. 11), diabetic zebrafish larvae, 10 μM
Method: (§1) Following isolation, derivatization, and analysis of compounds 41-48 through the in vitro panel of assays, the mace natural products and licarin A derivatives were investigated in the larval diabetic zebrafish assay for potential antidiabetic activity. Western blot analysis of zebrafish expression levels for glycated hemoglobin, metabolic enzymes, and molecular targets NFκB and PPAR-γ was performed to evaluate potential lead improvement and to discover possible mechanisms of action.
Wild-type zebrafish were sorted into 24-well microplates with 10 fish per well for a four-phase treatment cycle. At 72 hpf, type 2 diabetes was induced by administering 0.5 mg/mL alloxan in fish water for percutaneous absorption. After three hours of alloxan treatment, phase two of the treatment cycle was initiated by administering 10 μM doses of natural product compounds 41-43 (FIG. 4) or derivatives 45-48 (FIG. 6) with 0.01% DMSO in system water. […] Following centrifugation (60 minutes at 4° C. and 17,000 rpm), protein content of the homogenate supernatant was determined using the Pierce BCA Protein Assay kit (Pierce Biotechnology). Homogenates were analyzed by Western blot with equal amounts of total protein (20 μg) in each sample and using 4×LDS loading buffer (NuPAGE Life Technologies). […]
(§2) Electrophoresis was performed with NuPAGE MES SDS Running Buffer and using the XCell SureLock Mini-Cell Electrophoresis System (Life Technologies). […] The HRP conjugated antibodies were detected using SuperSignal West Femto chemiluminescent substrate (Pierce Biotechnology) and immunoblot images were captured using the luminometer and Lumi Analyst 3.0 software.
(§3) Band densities were determined using ImageJ Gel Analysis to determine expression levels of each protein of interest. Expression levels of HbA1C, PPAR-γ, and NFκB were organized into a bar graphs (FIG. 5) with band densities calculated in comparison to the housekeeping gene β-actin, normalized to the untreated diabetic group (B) of zebrafish. […].

[1] = test system: HbA1C (glycated hemoglobin) expression; assay: Larval diabetic zebrafish assay, Western blot of HbA1C; format: in vivo; conditions: duplicate Western blot (FIG. 7), diabetic zebrafish larvae, 10 μM
Method: as §1
(§4) Wild-type zebrafish were sorted into 24-well microplates with 10 fish per well for a four-phase treatment cycle. At 72 hpf, type 2 diabetes was induced by administering 0.5 mg/mL alloxan in fish water for percutaneous absorption. After three hours of alloxan treatment, phase two of the treatment cycle was initiated by administering 10 μM doses of natural product compounds 41-43 (FIG. 4) or derivatives 45-48 (FIG. 6) with 0.01% DMSO in system water. At 78 hpf, the incubation solution was changed to 10 mg/ml D-glucose for 30 minutes, followed by a phase-four rinse in fresh system w Following the four-phase treatment cycle, zebrafish treatment groups were snap frozen in microcentrifuge tubes on dry ice, stored overnight at −80° C., thawed, and homogenized with 2 μL PBS per animal. Following centrifugation (60 minutes at 4° C. and 17,000 rpm), protein content of the homogenate supernatant was determined using the Pierce BCA Protein Assay kit (Pierce Biotechnology). Homogenates were analyzed by Western blot with equal amounts of total protein (20 μg) in each sample and using 4×LDS loading buffer (NuPAGE Life Technologies). The immunoblot samples were heated at 95° C. for 5 minutes and loaded onto NuPAGE Bis-Tris 4-12% gradient SDS-PAGE gels.
(§5) Electrophoresis was performed with NuPAGE MES SDS Running Buffer and using the XCell SureLock Mini-Cell Electrophoresis System (Life Technologies). Proteins separated on the gel were transferred to a PVDF membrane using TBST buffer. The blots were blocked in 3% BSA in TBST and subsequently probed overnight with primary antibodies (1:1000 in 1% BSA in TBST) against each target of interest. Following TBST rinses, secondary HRP-conjugated antibodies (1:2000) were applied to the membrane for 60 minutes. The HRP conjugated antibodies were detected using SuperSignal West Femto chemiluminescent substrate (Pierce Biotechnology) and immunoblot images were captured using the luminometer and Lumi Analyst 3.0 software.
as §3

PPAR-γ expression = assay: Larval diabetic zebrafish assay, Western blot of PPAR-γ; format: in vivo; conditions: diabetic zebrafish larvae, 10 μM
Method: Western blot analysis of zebrafish expression levels for glycated hemoglobin, metabolic enzymes, and molecular targets NFκB and PPAR-γ was performed to evaluate potential lead improvement and to discover possible mechanisms of action.
as §4, with “After three hours of alloxan treatment, phase two of the treatment cycle was initiated by administering 10 μM doses of natural product compounds 41-43 (FIG. 4) or derivatives 45-48 (FIG. 6) with 0.01% DMSO in system water.” left out, “Technologies).” for “Technologies). The immunoblot samples were heated at 95° C. for 5 minutes and loaded onto NuPAGE Bis-Tris 4-12% gradient SDS-PAGE gels.”
as §5, §3

PEPCK expression = assay: Larval diabetic zebrafish assay, Western blot of PEPCK; format: in vivo; conditions: duplicate Western blot (FIG. 10), diabetic zebrafish larvae, 10 μM
Method: as §1, §4, §5, §3

PPAR-γ = target: T1, PPAR-γ (Homo sapiens, UniProt P37231); assay: PPAR-γ ELISA assay (PPAR-α,γ,δ Complete Transcription Factor Assay Kit; CCD-112CoN or Hela cells, nuclear extracts); format: cell-based
T1 construct: endogenous in cells; host or cells: CCD-112CoN normal colon cells or HeLa cells (ATCC), nuclear extract
T1 sequence (P37231 1-505): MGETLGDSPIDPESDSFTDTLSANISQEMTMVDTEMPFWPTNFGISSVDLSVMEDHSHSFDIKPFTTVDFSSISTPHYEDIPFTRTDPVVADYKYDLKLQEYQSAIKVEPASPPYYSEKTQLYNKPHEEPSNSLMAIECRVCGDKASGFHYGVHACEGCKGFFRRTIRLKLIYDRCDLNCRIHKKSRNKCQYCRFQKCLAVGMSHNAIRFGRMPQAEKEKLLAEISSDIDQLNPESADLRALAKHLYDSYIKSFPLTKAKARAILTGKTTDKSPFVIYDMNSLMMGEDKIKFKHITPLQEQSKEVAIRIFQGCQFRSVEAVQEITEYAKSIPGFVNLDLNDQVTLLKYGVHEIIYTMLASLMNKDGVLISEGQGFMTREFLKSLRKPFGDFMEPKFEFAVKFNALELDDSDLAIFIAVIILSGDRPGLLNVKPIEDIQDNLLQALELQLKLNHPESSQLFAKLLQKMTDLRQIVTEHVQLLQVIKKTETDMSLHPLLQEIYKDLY
Method: To evaluate the ability of natural product extracts and compounds to induce specific binding of PPAR-γ transcription factor in nuclear extracts to immunosorbed peroxisome proliferator response element, the PPAR-α,γ,δ Complete Transcription Factor Assay Kit (Cayman Chemical Company) was used according to the kit protocol. 303 CCD-112CoN normal colon cells or Hela cells (ATCC) were treated with mace extracts or isolated compounds for 24 h, nuclear extracts were harvested using the NE-PER kit (Pierce Biotechnology), and protein content equilibrated using the Pierce BCA Protein Assay kit (Pierce Biotechnology). Specific binding was detected through quantification of absorptivity at 630 nm in a BioTek uQuant microplate reader (BioTek Instruments, Inc.). […] Licarin A derivatives 45-48 were screened through the panel of in vitro assays to evaluate their potential as antidiabetic compound leads. […] Methods for the assay were as described above.

NFκB = target: T2, NFκB (Homo sapiens, UniProt Q04206); assay: NFκB assay (EZ-Detect Transcription Factor Assay kit; TNF-α-treated HeLa cells, nuclear extracts); format: cell-based
T2 construct: endogenous in cells; host or cells: HeLa cells (ATCC), nuclear extract
T2 sequence (Q04206 whole entry): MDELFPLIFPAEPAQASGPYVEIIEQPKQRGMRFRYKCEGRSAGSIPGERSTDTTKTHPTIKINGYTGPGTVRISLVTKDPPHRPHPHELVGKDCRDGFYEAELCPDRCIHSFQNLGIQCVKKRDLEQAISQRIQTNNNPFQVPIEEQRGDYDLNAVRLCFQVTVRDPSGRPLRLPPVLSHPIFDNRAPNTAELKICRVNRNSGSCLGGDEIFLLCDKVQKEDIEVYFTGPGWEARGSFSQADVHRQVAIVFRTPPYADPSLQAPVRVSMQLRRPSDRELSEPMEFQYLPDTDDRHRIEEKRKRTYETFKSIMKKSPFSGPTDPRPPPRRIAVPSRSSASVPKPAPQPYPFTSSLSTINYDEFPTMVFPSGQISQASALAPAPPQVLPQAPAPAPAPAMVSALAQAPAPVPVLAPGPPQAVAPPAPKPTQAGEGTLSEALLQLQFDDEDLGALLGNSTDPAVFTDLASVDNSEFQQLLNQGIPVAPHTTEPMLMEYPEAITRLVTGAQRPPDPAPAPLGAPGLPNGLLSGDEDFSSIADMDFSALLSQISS
Method: To assess the ability of natural product extracts and compounds to inhibit the specific binding of activated NFκB transcription factor to the biotinylated consensus sequence, the EZ-Detect™ Transcription Factor Assay kit (Pierce Biotechnology) was used according to the kit manual and established protocol. HeLa cells (ATCC) were treated with each test sample and TNF-α, nuclear extracts harvested using the NE-PER kit (Pierce Biotechnology), and protein content equilibrated using the Pierce BCA Protein Assay kit (Pierce Biotechnology). Specific binding was detected through quantification of chemiluminescent signal in a plate reader (FLUOstar Optima, BMG Labtechnologies GmbH, Inc.).

NFκB p65 expression = assay: Larval diabetic zebrafish assay, Western blot of NFκB p65; format: in vivo; conditions: duplicate Western blot (FIG. 9), diabetic zebrafish larvae, 10 μM
Method: as §1
Wild-type zebrafish were sorted into 24-well microplates with 10 fish per well for a four-phase treatment cycle. […] Following centrifugation (60 minutes at 4° C. and 17,000 rpm), protein content of the homogenate supernatant was determined using the Pierce BCA Protein Assay kit (Pierce Biotechnology). Homogenates were analyzed by Western blot with equal amounts of total protein (20 μg) in each sample and using 4×LDS loading buffer (NuPAGE Life Technologies). […]
as §2, with “software. […]” for “software.”

[2] = Table 19, licarin A derivatives at 50 μg/mL in Hela cells
[3] = Table 13, tested at 50, 5, 0.5 and 0.05 μg/mL
[4] = Table 20 summary, read-out: NFκBIC50

IC50 (NFκB; [3]) | IC50 (NFκB; [4]) | IC50 (NFκB; in vitro NFκB assay) | PPAR-γ % activation (PPAR-γ; Table 14, isolates at 50 μg/mL) | Compound | GLUT-4 expression (band density) (GLUT-4 expression) | HbA1C expression (band density) [1] | PPAR-γ expression (band density) (PPAR-γ expression; duplicate Western blot (FIG. 8)) | PEPCK expression (band density) (PEPCK expression) | PPAR-γ % activation (PPAR-γ; [2]) | PPAR-γ % activation (PPAR-γ; Table 20 summary, 50 μg/mL) | NFκB inhibitory activity in vitro (NFκB; HeLa cells) | NFκB p65 expression (band density) (NFκB p65 expression) | PPAR-γ activity in vitro (PPAR-γ; preliminary screening, 50 μg/mL) | PPAR-γ expression (band density) (PPAR-γ expression; preliminary Western blot (FIG. 4/5))
 |  |  |  | C/C=C/c1cc(OC)c2c(c1)[C@H](C)[C@@H](c1ccc(OC(=O)OCC)c(OC)c1)O2 [Compound 47, licarin A ethyl carbonate] | significantly increased capacities for glucose uptake | did not reduce HbA1C expression | performed surprisingly well | retained low PEPCK expression | 0% | 0% | only weak NFκB inhibitory activity |  |  | 
 |  |  |  | COc1cc([C@H]2Oc3c(OC)cc(C=O)cc3[C@@H]2C)ccc1OC(C)C [Compound 46, isopropoxy-licarin A carbaldehyde] |  | most effective test samples for decreasing HbA1C; also recorded: significant reduction of HbA1C expression |  | indicated a return to normoglycemia | 29% | 29% |  | lower levels of NFκB | no significant PPAR-γ activity in vitro | 
0.1 nM | 0.1 nM | 0.1 nM |  | C/C=C/c1ccc(O[C@H](C)[C@@H](OC(C)=O)c2ccc3c(c2)OCO3)c(OC)c1 [Compound 44, maceneolignan J] |  |  |  |  |  |  |  |  |  | 
 |  |  |  | C/C=C/c1cc(OC)c2c(c1)[C@H](C)[C@@H](c1ccc(OC(C)C)c(OC)c1)O2 [Compound 45, isopropoxy-licarin A] |  | did not reduce HbA1C expression |  | indicated a return to normoglycemia | 57% | 57% |  |  |  | 
64.4 nM | 64.4 nM | 64.4 nM | <50% | C=CCc1cc(OC)c(O[C@H](C)[C@@H](O)c2ccc3c(c2)OCO3)c(OC)c1 [Compound 43, erythro-8,4′-oxyneolign-8′-ene] |  |  |  |  |  | <50% |  |  |  | greater PPAR-γ expression that 41
 |  |  |  | CCOC(=O)Oc1ccc([C@H]2Oc3c(OC)cc(C=O)cc3[C@@H]2C)cc1OC [Compound 48, licarin A formyl ethyl carbonate] | significantly increased capacities for glucose uptake | did not reduce HbA1C expression |  | retained low PEPCK expression | 0% | 0% |  | lower levels of NFκB |  | 

From patent US20250011296A1, “MODULATORS OF MOLECULAR TARGETS EXPRESSED IN METABOLIC AND INFLAMMATORY DISORDERS” (Ohio State Innovation Foundation, priority 2021, published 2025)
